Experimental findings from patent US20100222344A1, “4-ANILINO-SUBSTITUTED QUINAZOLINE DERIVATIVES AS TYROSINE KINASE INHIBITORS” (AstraZeneca AB, priority 2005, published 2010) are described below.

The target in one experiment is T1, EGFR tyrosine kinase (Homo sapiens, UniProt P00533).
T1 construct: Recombinant intracellular fragments of EGFR, erbB2 and erbB4; made in house; host or cells: baculovirus/Sf21 insect cells (cleared lysate used)
Description: Test (a) protein tyrosine kinase phosphorylation assay, EGFR. The conditions noted are these: read-out: IC50 Test (a): Inhibition of EGFR tyrosine kinase protein phosphorylation. In kind it is biochemical. How it is done:
(§1) a) Protein Tyrosine Kinase phosphorylation Assays
(§2) This test measures the ability of a test compound to inhibit the phosphorylation of a tyrosine containing polypeptide substrate by EGFR, erbB2 and erbB4 tyrosine kinase enzyme.
(§3) Recombinant intracellular fragments of EGFR, erbB2 and erbB4 (accession numbers X00588, X03363 and L07868 respectively) were cloned and expressed in the baculovinis/Sf21 system. […]
(§4) Constitutive kinase activity of these recombinant proteins was determined by their ability to phosphorylate a synthetic peptide (made up of a random co-polymer of Glutamic Acid, Alanine and Tyrosine in the ratio of 6:3:1). […]
(§5) The immobilised phospho-peptide product of the reaction was detected by immunological methods. […] After further washing, HRP activity in each well of the plate was measured colorimetrically using 22′-Azino-di-[3-ethylbenzthiazoline sulfonate (6)]diammonium salt crystals (ABTS™ from Roche) as a substrate.
(§6) Quantification of colour development and thus enzyme activity was achieved by the measurement of absorbance at 405 nm on a Molecular Devices ThermoMax microplate reader. Kinase inhibition for a given compound was expressed as an IC50 value. […] The range of phosphorylation was calculated from the positive (vehicle plus ATP) and negative (vehicle minus ATP) control values.

The target in a further experiment is T2, erbB2 tyrosine kinase (Homo sapiens, UniProt P04626).
T2 construct: Recombinant intracellular fragments of EGFR, erbB2 and erbB4; made in house; host or cells: baculovirus/Sf21 insect cells (cleared lysate used)
T2 sequence (P04626 676-1255 limits assumed): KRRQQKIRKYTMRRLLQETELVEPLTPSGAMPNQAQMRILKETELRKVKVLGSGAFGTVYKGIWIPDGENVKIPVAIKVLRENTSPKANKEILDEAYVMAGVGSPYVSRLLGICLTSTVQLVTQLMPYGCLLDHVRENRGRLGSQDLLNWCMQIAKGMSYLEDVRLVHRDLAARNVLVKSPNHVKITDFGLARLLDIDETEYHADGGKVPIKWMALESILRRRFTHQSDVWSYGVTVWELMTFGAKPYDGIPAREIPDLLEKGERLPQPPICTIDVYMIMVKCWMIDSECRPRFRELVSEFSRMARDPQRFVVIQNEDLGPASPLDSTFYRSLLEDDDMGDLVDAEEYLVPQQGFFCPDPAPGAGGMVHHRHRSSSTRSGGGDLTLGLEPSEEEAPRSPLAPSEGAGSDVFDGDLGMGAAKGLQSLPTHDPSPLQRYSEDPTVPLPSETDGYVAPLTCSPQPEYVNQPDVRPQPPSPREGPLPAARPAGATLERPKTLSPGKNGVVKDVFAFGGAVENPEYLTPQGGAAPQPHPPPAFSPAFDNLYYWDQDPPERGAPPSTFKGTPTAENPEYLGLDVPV
Description: Test (a) protein tyrosine kinase phosphorylation assay, erbB2. The conditions noted are these: read-out: IC50 Test (a): Inhibition of erbB2 tyrosine kinase protein phosphorylation. In kind it is biochemical. As for the experimental part: as §1, §2, §3, §4, §5, §6

The subject of the next experiment is BT474C cells. Description: Test (e) BT474C cell proliferation assay. The conditions noted are these: Homo sapiens, 96 h, four-day MTS assay, read-out: IC50 Test (e): Inhibition of proliferation of BT474C cells. In kind it is cell-based. The text has this:
The BT-474 tumour cell line (human mammary carcinoma) was obtained from Dr Baselga (at Laboratorio Recerca Oncologica, Paseo Vall D'Hebron 119-129, Barcelona 08035, Spain). This cell line was subcloned and a certain population (hereinafter referred to as “BT474C”) was obtained.
e) BT474C Cell Proliferation Assay
BT474C cells are a sub-cloned population of in vivo competent cells, as discussed above.
The BT474C assay is a MTS (3-(4,5-dimethylthiazol-2-yl)-5-(3-carboxymethoxyphenyl)-2-(4-sulfophenyl)-2H-tetrazolium, inner salt—Promega G1111) endpoint-based cell proliferation assay, which measures the ability of a test compound to inhibit the proliferation of cells over a four-day period. […] Cell density is measured using a haemocytometer and viability is calculated using Trypan Blue solution before being further diluted in Assay Medium and seeded at a density of 1×10^4 cells per well (in 100 μl) into clear bottomed 96 well plates (Costar 3598). […] The plate is read at 490 nm on a spectrophotometer.
Assay plates are left at 37° C. for 4 days and then treated with MTS solution (as above), which is converted to a soluble formazan product by active cells. After incubating the plates for 2 hours the reaction is stopped by the addition of 10% SDS (Sodium dodecyl sulphate) and the plates are read at 490 nm on a spectrophotometer giving absorbance values relative to the concentration of converted dye. […]
For orientation: Tetrazolium assays rely on reduction of a dye to a coloured formazan, in cell work by metabolically active cells.

T1 sequence (P00533 669-1210 limits assumed): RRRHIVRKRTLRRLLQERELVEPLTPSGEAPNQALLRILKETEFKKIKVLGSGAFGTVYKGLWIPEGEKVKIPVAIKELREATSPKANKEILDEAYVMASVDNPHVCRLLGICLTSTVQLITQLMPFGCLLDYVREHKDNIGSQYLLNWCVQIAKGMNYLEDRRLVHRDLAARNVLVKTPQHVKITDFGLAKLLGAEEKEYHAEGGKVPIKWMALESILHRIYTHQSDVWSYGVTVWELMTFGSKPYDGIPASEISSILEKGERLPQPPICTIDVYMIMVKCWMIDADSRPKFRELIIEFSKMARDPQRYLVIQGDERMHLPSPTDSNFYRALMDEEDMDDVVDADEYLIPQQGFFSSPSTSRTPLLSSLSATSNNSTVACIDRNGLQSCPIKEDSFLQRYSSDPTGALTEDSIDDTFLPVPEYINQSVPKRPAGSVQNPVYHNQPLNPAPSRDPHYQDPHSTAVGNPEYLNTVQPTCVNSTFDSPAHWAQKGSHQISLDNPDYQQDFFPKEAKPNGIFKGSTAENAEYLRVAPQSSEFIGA

With `C[C@@H](Oc1cccc2ncnc(Nc3ccc(OCC4CCCO4)c(Cl)c3)c12)C(=O)N1CCOCC1` (stereo partly drawn) [Example 2, N-[3-chloro-4-(tetrahydrofuran-2-ylmethoxy)phenyl]-5-[(1R)-1-methyl-2-morpholin-4-yl-2-oxoethoxy]quinazolin-4-amine], the IC50 at EGFR tyrosine kinase came to 362 nM; at erbB2 tyrosine kinase, 8 nM; in the experiment on BT474C cells it was 337 nM.

Turning to `CSCCCOc1ccc(Nc2ncnc3cccc(O[C@H](C)C(=O)N4CCOCC4)c23)cc1Cl` [Example 3, N-{3-chloro-4-[3-(methylthio)propoxy]phenyl}-5-[(1R)-1-methyl-2-morpholin-4-yl-2-oxoethoxy]quinazolin-4-amine], the IC50 came out at 169 nM at EGFR tyrosine kinase, 3 nM on erbB2 tyrosine kinase and 418 nM in the experiment on BT474C cells.
